According to patent publication US20250179439A1, “PRODUCTION METHOD FOR ORGANOID” (KEIO UNIVERSITY, priority 2022, published 2025):
Residues, ends and D or L forms follow the SMILES beside them. *: point of attachment. Cbz = O=C(OCc1ccccc1)*

Tested on: CRC organoids
Assay: Drug screening assay (HTS) of GFP-labelled organoids in suspension culture, 384-well
Assay type: cell-based, human
From the text: In the present study, a total of 23 organoid lineages were subjected to screening. Prior to screening, the organoids were labeled with a green fluorescent protein (GFP) using PB-CMV-MCS-EF1α-GFP-Puro PiggyBac (PB513B-1, available from System Biosciences, LLC.) and Super PiggyBac transposase (PB210-20, available from System Biosciences, LLC.) vectors.
The organoids were dissociated with TrypLE Express (available from Thermo Fisher Scientific, Inc.) and filtered using a cell strainer (pore size: 20 μm, available from Sysmex Corporation). Using a cell sorter (SH800, available from Sony Corporation), 800 to 1,500 cells were sorted into each well of a 384-well plate.
The organoids were treated with a test compound 24 hours or 96 hours after seeding. The organoids were grown for 6 to 8 days, and the colony area was measured based on the fluorescence of GFP using an IN Cell Analyzer 6000 confocal imaging system (available from GE Healthcare Life Sciences). In addition, bright field imaging and luminescence-based ATP measurement were carried out using Cell3iMager duos (available from SCREEN Holdings Co., Ltd.) and CellTiter-Glo cell viability assay (available from Promega Corporation).
The bright field image was analyzed using software integrated into the Cell3iMager. […]

| Compound | growth of organoids, CRC versus normal colon organoids (MANOVA of HTS drug responses) (CRC organoids compared with normal colon organoids) | cell death (maximum concentration of 1 μM, all screening plates (normal colon and CRC organoids), used to estimate the background signal) [%] |
| --- | --- | --- |
| (+)-JQ1 | suppressed the growth of organoids in a cancer-specific manner |  |
| CC(C)C[C@@H](C=O)NC(=O)[C@H](CC(C)C)NC(=O)[C@H](CC(C)C)NC(=O)OCc1ccccc1 [MG-132] (Cbz-Leu-Leu-Leu-aldehyde) |  | 100 |
